Laboratory results taken from patent US20120264735A1 (priority 2009, published 2012).

Target: T1, c-Met kinase (recombinant c-Met) (Homo sapiens, UniProt P08581)
T1 construct: 0.27 nM recombinant c-Met
Assay: In vitro kinase assay I (homogeneous time-resolved fluorescence tyrosine kinase assay)
Format: biochemical
How it was run: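 Biotinylated peptide (0.5 μM) phosphorylated by 0.2 nM recombinant c-Met with 50 μM MgATP, 60 min at room temperature, pH 7.4, 5% DMSO. EDTA stop; HTRF read with Eu-anti-phosphotyrosine antibody and streptavidin-APC. IC50 from 4-parameter logistic fit.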

T1 sequence (P08581 25-1390): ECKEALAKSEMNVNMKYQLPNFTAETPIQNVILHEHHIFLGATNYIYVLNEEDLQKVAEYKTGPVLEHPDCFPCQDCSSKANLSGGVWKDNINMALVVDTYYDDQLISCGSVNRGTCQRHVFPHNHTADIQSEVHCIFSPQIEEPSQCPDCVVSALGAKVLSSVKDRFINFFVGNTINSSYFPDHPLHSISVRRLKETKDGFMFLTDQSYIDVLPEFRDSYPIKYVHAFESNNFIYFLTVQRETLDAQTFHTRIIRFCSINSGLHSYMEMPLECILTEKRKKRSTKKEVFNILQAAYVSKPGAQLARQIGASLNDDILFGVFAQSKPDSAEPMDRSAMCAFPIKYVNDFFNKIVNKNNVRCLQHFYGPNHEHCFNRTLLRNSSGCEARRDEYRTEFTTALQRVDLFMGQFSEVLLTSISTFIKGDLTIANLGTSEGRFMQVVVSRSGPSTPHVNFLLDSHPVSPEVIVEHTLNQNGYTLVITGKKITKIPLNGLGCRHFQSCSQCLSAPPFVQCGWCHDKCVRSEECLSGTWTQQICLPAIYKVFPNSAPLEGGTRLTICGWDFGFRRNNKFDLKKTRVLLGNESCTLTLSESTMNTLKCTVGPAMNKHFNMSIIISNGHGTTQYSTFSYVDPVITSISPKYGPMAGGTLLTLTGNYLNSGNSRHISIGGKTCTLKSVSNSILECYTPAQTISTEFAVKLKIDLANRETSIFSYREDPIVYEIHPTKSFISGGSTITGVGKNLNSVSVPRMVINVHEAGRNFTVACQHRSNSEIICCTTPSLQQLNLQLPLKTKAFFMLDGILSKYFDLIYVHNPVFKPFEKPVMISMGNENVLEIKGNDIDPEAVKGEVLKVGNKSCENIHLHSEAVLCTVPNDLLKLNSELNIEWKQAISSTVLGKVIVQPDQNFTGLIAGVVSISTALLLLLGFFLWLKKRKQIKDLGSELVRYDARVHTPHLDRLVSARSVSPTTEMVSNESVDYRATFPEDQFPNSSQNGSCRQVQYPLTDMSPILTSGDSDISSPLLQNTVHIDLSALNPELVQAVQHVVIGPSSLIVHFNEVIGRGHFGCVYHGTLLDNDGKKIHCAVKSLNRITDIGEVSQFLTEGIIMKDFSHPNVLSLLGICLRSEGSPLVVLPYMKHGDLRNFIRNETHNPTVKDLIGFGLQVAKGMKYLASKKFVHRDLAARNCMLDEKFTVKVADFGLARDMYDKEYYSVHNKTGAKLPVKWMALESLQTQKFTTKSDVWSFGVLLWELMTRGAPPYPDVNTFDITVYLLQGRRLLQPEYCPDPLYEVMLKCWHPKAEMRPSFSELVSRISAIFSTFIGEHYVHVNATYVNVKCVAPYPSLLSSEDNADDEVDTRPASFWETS

Compound | IC50 [nM]
CCn1cc(-n2ccc(=O)c(C(C)c3cccc(-c4ncc(-c5cnn(C)c5)cn4)c3)n2)cn1 (single isomer, unassigned) [Example 235, 1-(1-ethyl-1H-pyrazol-4-yl)-3-[(1R or S)-1-{3-[5-(1-methyl-1H-pyrazol-4-yl)pyrimidin-2-yl]phenyl}ethyl]pyridazin-4(1H)-one] | < 100
CCOc1cnc(-c2cccc(Cc3nn(-c4cnn(CC(C)(C)O)c4)ccc3=O)c2)nc1 [Example 666, 3-[3-(5-Ethoxypyrimidin-2-yl)benzyl]-1-[1-(2-hydroxy-2-methylpropyl)-1H-pyrazol-4-yl]pyridazin-4(1H)-one] | < 100
CCOc1cnc(-c2cccc(Cc3nn(-c4cnn(C5COC5)c4)ccc3=O)c2)nc1 [Example 660, 3-[3-(5-Ethoxypyrimidin-2-yl)benzyl]-1-[1-(oxetan-3-yl)-1H-pyrazol-4-yl]pyridazin-4(1H)-one] | < 100
CC(c1cccc(-c2ncc(O[C@@H]3CCNC[C@H]3F)cn2)c1)c1nn(-c2cnn(C)c2)ccc1=O (single isomer, unassigned) [Example 341, 3-{(1R or S)-1-[3-(5-{[(3R or S,4R or S)-3-Fluoropiperidin-4-yl]oxy}pyrimidin-2-yl)phenyl]ethyl}-1-(1-methyl-1H-pyrazol-4-yl)pyridazin-4(1H)-one] | < 100
CCn1cc(-n2ccc(=O)c(Cc3cccc(-c4ncc(COC)cn4)c3)n2)cn1 [Example 163, 1-(1-ethyl-1H-pyrazol-4-yl)-3-{3-[5-(methoxymethyl)pyrimidin-2-yl]benzyl}pyridazin-4(1H)-one] | < 100
N#Cc1cccc(-n2ccc(=O)c(Cc3cccc(NC(=O)OCCOCC(F)(F)F)c3)n2)c1 [Example 586, 2-(2,2,2-trifluoroethoxy)ethyl (3-{[1-(3-cyanophenyl)-4-oxo-1,4-dihydropyridazin-3-yl]methyl}phenyl)carbamate] | < 100
Cn1cc(-n2ccc(=O)c(Cc3cccc(NC(=O)OCC4CCOC4)c3)n2)cn1 (racemic) [Example 542, rac-tetrahydrofuran-3-ylmethyl (3-{[1-(1-methyl-1H-pyrazol-4-yl)-4-oxo-1,4-dihydropyridazin-3-yl]methyl}phenyl)carbamate] | < 100
CCn1cc(-n2ccc(=O)c(C(C)c3cccc(-c4ncc(OCc5noc(C)n5)cn4)c3)n2)cn1 (single isomer, unassigned) [Example 302, 1-(1-ethyl-1H-pyrazol-4-yl)-3-[(1R or S)-1-(3-{5-[(5-methyl-1,2,4-oxadiazol-3-yl)methoxy]pyrimidin-2-yl}phenyl)ethyl]pyridazin-4(1H)-one] | < 100
CCOC(=O)Nc1cccc(Cc2nn(-c3ccc(OC)nc3)ccc2=O)c1 [Example 31, ethyl (3-{[1-(6-methoxypyridin-3-yl)-4-oxo-1,4-dihydropyridazin-3-yl]methyl}phenyl)carbamate] | < 100
CN(C)C(=O)CCOC(=O)Nc1cccc(Cc2nn(-c3cccc(C#N)c3)ccc2=O)c1 [Example 588, 3-(dimethylamino)-3-oxopropyl (3-{[1-(3-cyanophenyl)-4-oxo-1,4-dihydropyridazin-3-yl]methyl}phenyl)carbamate] | < 100
CCOCCn1cnc(-c2cccc(Cc3nn(-c4cnn(C)c4)ccc3=O)c2)n1 [Example 716, 3-{3-[1-(2-ethoxyethyl)-1H-1,2,4-triazol-3-yl]benzyl}-1-(1-methyl-1H-pyrazol-4-yl)pyridazin 4(1H)-one] | 100 to 1000
O=c1ccn(-c2ccc(F)c(F)c2)nc1Cc1cccc(-c2ncc(OCC3COCCO3)cn2)c1 (single isomer, unassigned) [Example 345, 1-(3,4-difluorophenyl)-3-(3-{5-[(2R or S)-1,4-dioxan-2-ylmethoxy]pyrimidin-2-yl}benzyl)pyridazin-4(1H)-one] | < 100
Cn1cc(-n2ccc(=O)c(Cc3cccc(-c4nnn(C)n4)c3)n2)cn1 [Example 58, 1-(1-methyl-1H-pyrazol-4-yl)-3-[3-(2-methyl-2H-tetrazol-5-yl)benzyl]pyridazin-4(1H)-one] | 100 to 1000
CC(C)COC(=O)Nc1cccc(Cc2nn(-c3cccc(Br)c3)ccc2=O)c1 [Example 69, 2-methylpropyl (3-{[1-(3-bromophenyl)-4-oxo-1,4-dihydropyridazin-3-yl]methyl}phenyl)carbamate] | < 100
Cn1cc(-n2ccc(=O)c(Cc3ccc4[nH]c(=O)[nH]c4c3)n2)cn1 [Example 23, 5-{[1-(1-methyl-1H-pyrazol-4-yl)-4-oxo-1,4-dihydropyridazin-3-yl]methyl}-1,3-dihydro-2H-benzimidazol-2-one] | 100 to 1000
Cn1cc(-n2ccc(=O)c(Cc3cccc(-c4ncc(OCC(C)(C)O)cn4)c3)n2)cn1 [Example 358, 3-{3-[5-(2-Hydroxy-2-methylpropoxy)pyrimidin-2-yl]benzyl}-1-(1-methyl-1H-pyrazol-4-yl)pyridazin-4(1H)-one] | < 100

Compound | IC50 [nM]
Cn1cc(-n2ccc(=O)c(Cc3cccc(-c4ncc(Br)cn4)c3)n2)cn1 [Example 465, 3-[3-(5-Bromopyrimidin-2-yl)benzyl]-1-(1-methyl-1H-pyrazol-4-yl)pyridazin-4(1H)-one] | < 100
CCn1cc(-n2ccc(=O)c(C(C)c3cccc(-c4ncc(OC5COC5)cn4)c3)n2)cn1 (single isomer, unassigned) [Example 213, 1-(1-ethyl-1H-pyrazol-4-yl)-3-((1S or R)-1-{3-[5-(oxetan-3-yloxy)pyrimidin-2-yl]phenyl}ethyl)pyridazin-4(1H)-one] | 100 to 1000
Cn1cc(-n2ccc(=O)c(Cc3cccc(-c4ncc(CN5CCC(F)C5)cn4)c3)n2)cn1 (racemic) [Example 431, rac-3-(3-{5-[(3-fluoropyrrolidin-1-yl)methyl]pyrimidin-2-yl}benzyl)-1-(1-methyl-1H-pyrazol-4-yl)pyridazin-4(1H)-one] | < 100
CCOc1cnc(-c2cccc(Cc3nn(-c4ccc(C(=O)NCC(C)(C)O)c(F)c4)ccc3=O)c2)nc1 [Example 724, 4-{3-[3-(5-ethoxypyrimidin-2-yl)benzyl]-4-oxopyridazin-fluoro-N-(2-1(4H)-yl}-2-hydroxy-2-methylpropyl) benzamide] | < 100
CCn1cc(-n2ccc(=O)c(C(C)c3cccc(-c4ncc(OCC5(C)COC5)cn4)c3)n2)cn1 (single isomer, unassigned) [Example 304, 1-(1-ethyl-1H-pyrazol-4-yl)-3-[(1R or S)-1-(3-{5-[(3-methyloxetan-3-yl)methoxy]pyrimidin-2-yl}phenyl)ethyl]pyridazin-4(1H)-one] | < 100
CCCn1cc(-n2ccc(=O)c(Cc3cccc(NC(=O)OCC)c3)n2)cn1 [Example 112, ethyl (3-{[4-oxo-1-(1-propyl-1H-pyrazol-4-yl)-1,4-dihydropyridazin-3-yl]methyl}phenyl)carbamate] | < 100
O=C(Nc1cccc(Cc2nn(-c3cc(F)c(F)c(F)c3)ccc2=O)c1)OCCCN1CCCC1=O [Example 551, 3-(2-oxopyrrolidin-1-yl)propyl (3-{[4-oxo-1-(3,4,5-trifluorophenyl)-1,4-dihydropyridazin-3-yl]methyl}phenyl)carbamate] | < 100
CCOC(=O)Nc1cccc(Cc2nn(-c3cnn(CC(F)(F)F)c3)ccc2=O)c1 [Example 111, ethyl [3-({4-oxo-1-[1-(2,2,2-trifluoroethyl)-1H-pyrazol-4-yl]-1,4-dihydropyridazin-3-yl}methyl)phenyl]carbamate] | < 100
CCn1cc(-n2ccc(=O)c(C(C)c3cccc(-c4ncc(OCC5CCN(C(=O)OC(C)(C)C)CC5)cn4)c3)n2)cn1 (single isomer, unassigned) [Example 291, tert-butyl 4-({[2-(3-{(1R or S)-1-[1-(1-ethyl-1H-pyrazol-4-yl)-4-oxo-1,4-dihydropyridazin-3-yl]ethyl}phenyl)pyrimidin-5-yl]oxy}methyl)piperidine-1-carboxylate] | < 100
CC(c1cccc(-c2ncc(OC(C)C(C)(C)O)cn2)c1)c1nn(-c2cnn(C)c2)ccc1=O (single isomer, unassigned) [Example 384, 3-{(1R or S)-1-[3-(5-{[(1R or S)-2-hydroxy-1,2-dimethylpropyl]oxy}pyrimidin-2-yl)phenyl]ethyl}-1-(1-methyl-1H-pyrazol-4-yl)pyridazin-4(1H)-one] | < 100
Cn1cc(-n2ccc(=O)c(Cc3cccc(-c4ncc(N5CCCC(F)C5)cn4)c3)n2)cn1 (racemic) [Example 468, rac-3-{3-[5-(3-fluoro-piperidin-1-yl)pyrimidin-2-yl]benzyl)-1-(1-methyl-1H-pyrazol-4-yl)pyridazin-4(1H)-one] | < 100
COc1cnc(-c2cccc(Cc3nn(-c4cc(Cl)cc(C#N)c4)ccc3=O)c2)nc1 [Example 126, 3-chloro-5-{3-[3-(5-methoxypyrimidin-2-yl)benzyl]-4-oxopyridazin-1(4H)-yl}benzonitrile] | < 100
CCn1cc(-n2ccc(=O)c(C(C)c3cccc(-c4ncc(-c5cnn(C)c5)cn4)c3)n2)cn1 (single isomer, unassigned) [Example 234, 1-(1-ethyl-1H-pyrazol-4-yl)-3-[(1S or R)-1-{3-[5-(1-methyl-1H-pyrazol-4-yl)pyrimidin-2-yl]phenyl}ethyl]pyridazin-4(1H)-one] | < 100
CCn1cc(-n2ccc(=O)c(Cc3cccc(-c4ncc(OCC5CCO5)cn4)c3)n2)cn1 (racemic) [Example 308, rac-1-(1-ethyl-1H-pyrazol-4-yl)-3-{3-[5-(oxetan-2-ylmethoxy)pyrimidin-2-yl]benzyl}pyridazin-4(1H)-one] | < 100
C[C@@H](O)[C@@H](C)Oc1cnc(-c2cccc(Cc3nn(-c4cnn(C)c4)ccc3=O)c2)nc1 (single isomer, unassigned) [Example 374] | < 100
Cn1cc(-n2ccc(=O)c(Cc3cccc(-c4ncc(OCC(F)F)cn4)c3)n2)cn1 [Example 274, 3-{3-[5-(2,2-difluoroethoxy)pyrimidin-2-yl]benzyl}-1-(1-methyl-1H-pyrazol-4-yl)pyridazin-4(1H)-one] | < 100
